How the values were obtained:
Assay in all cases: relative viability (nuclei count vs DMSO), 5 days (fraction); higher = more cells survive
Pifithrin_alpha = compound: CC1=CC=C(C=C1)C(=O)CN2C3=C(CCCC3)SC2=N [Pifithrin_alpha]
Summary of the method: (§1)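 Hoechst staining, done together with fixation and permeabilisation, marked nuclei for 4× imaging and MetaXpress counting. This followed 5 days without medium change after lung cancer cell lines, kept overnight at 37 °C in 1536-well plates, were pinned with five library-drug doses (not always all listed) spaced by √10 on vehicle-anchored plates. Viability is the ratio of treated-well to vehicle-well nuclei, expressed as a median across plates. Plates passed only at control CV below 25% with at least one doubling.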

Bemcentinib = compound: Nc1nc(Nc2ccc3c(c2)CC[C@@H](N2CCCC2)CC3)nn1-c1cc2c(nn1)-c1ccccc1CCC2 [Bemcentinib]
Summary of the method: as §1

Axitinib = compound: CNC(=O)c1ccccc1Sc1ccc2c(/C=C/c3ccccn3)n[nH]c2c1 [Axitinib]
Summary of the method: as §1

[1] = compound: CC1=CC=C(C=C1)C(=O)CN2C3=C(CCCC3)SC2=N [Pifithrin_alpha] + Cc1nc(NC(=O)N2CCC[C@H]2C(N)=O)sc1-c1ccnc(C(C)(C)C(F)(F)F)c1 [Alpelisib] (partner 2 µM)
Summary of the method: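 Nuclei were stained with Hoechst during a one-step fixation (final 0.05% Triton X-100, 1% formaldehyde, 1 ug/ml Hoechst) carried out 5 days after dosing, then counted on 4× images. The cells, lung cancer lines in 1536-well plates, had been dosed by pin tool the day after seeding with one drug alone or a fixed anchor-drug dose plus five library-drug doses (not always all listed) in √10 steps. Relative viability is the nuclei count in treated wells divided by that in vehicle wells, and each value is the median of duplicate plates.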

| Cell Line | relative viability (Pifithrin_alpha; 1 µM) | relative viability (Pifithrin_alpha; 3.162 µM) | relative viability (Pifithrin_alpha; 10 µM) | relative viability (Pifithrin_alpha; 31.62 µM) | relative viability (Pifithrin_alpha; 100 µM) | relative viability (Bemcentinib; 0.04 µM) | relative viability (Bemcentinib; 0.1265 µM) | relative viability (Bemcentinib; 0.4 µM) | relative viability (Bemcentinib; 1.265 µM) | relative viability (Bemcentinib; 4 µM) | relative viability (Axitinib; 0.005 µM) | relative viability (Axitinib; 0.01581 µM) | relative viability (Axitinib; 0.05 µM) | relative viability (Axitinib; 0.1581 µM) | relative viability (Axitinib; 0.5 µM) | relative viability ([1]; first compound 1 µM) | relative viability ([1]; first compound 3.162 µM) | relative viability ([1]; first compound 10 µM) | relative viability ([1]; first compound 31.62 µM) | relative viability ([1]; first compound 100 µM) |
| --- | --- | --- | --- | --- | --- | --- | --- | --- | --- | --- | --- | --- | --- | --- | --- | --- | --- | --- | --- | --- |
| NCI-H1792 | 0.725 | 0.938 | 0.731 | 0.621 | 0.886 | 0.877 | 1.12 | 1.08 | 0.841 | 0.85 | 0.965 | 0.814 | 0.855 | 0.935 | 0.7 | 0.688 | 0.67 | 0.485 | 0.469 | 0.657 |
| NCI-H1666 | 1.01 | 0.909 | 0.837 | 0.795 | 0.776 | 0.902 | 1.34 | 1.03 | 1.06 | 0.998 | 1.06 | 0.965 | 0.965 | 1 | 0.977 | 0.771 | 0.577 | 0.527 | 0.479 | 0.352 |
| NCI-H661 | 0.948 | 1.01 | 0.988 | 1.02 | 0.873 | 0.965 | 1.07 | 0.994 | 1.01 | 0.964 | 1.01 | 1.02 | 0.987 | 0.96 | 1.02 | 0.528 | 0.552 | 0.623 | 0.63 | 0.73 |
| LK-2 | 0.975 | 1.18 | 1.12 | – | 1.25 | 0.969 | 1.26 | 1.25 | 1.06 | 1.01 | 0.976 | 0.746 | 0.816 | 0.823 | 0.822 | 1.06 | 1.03 | 1.02 | – | 1.56 |
| HCC-44 | 0.819 | 0.911 | 0.911 | 0.736 | 0.856 | 0.984 | 1.03 | 1.01 | 1.02 | 0.988 | 1.01 | 0.971 | 0.977 | 0.987 | 0.988 | 0.681 | 0.699 | 0.715 | 0.453 | 0.591 |
| PC-3 [JPC-3] | 0.73 | 1.03 | 0.934 | 0.949 | 0.932 | 0.978 | 1.06 | 1.12 | 1.05 | 1.06 | 1.08 | – | 1.1 | 1.03 | 1.2 | 0.953 | 0.945 | 0.975 | 0.884 | 0.882 |
| LC-2-ad | 0.702 | 1 | 0.96 | 0.697 | 0.832 | 0.903 | 0.988 | 0.99 | 0.971 | 0.972 | 1 | 0.963 | 1.03 | 0.956 | 1.02 | 0.898 | 0.799 | 0.791 | 0.56 | 0.682 |
| NCI-H460 | 1.06 | 0.949 | 0.872 | 0.592 | 0.837 | 0.973 | 1.1 | 1.06 | 1.07 | 1.01 | 0.976 | 0.981 | 1.05 | 1.01 | 1.1 | 0.529 | 0.57 | 0.384 | – | 0.305 |
